Legend:
Assay type in all cases: cell-based
COLO 205 = assay: In vitro tumor cell efficacy test (SRB), Colon Cancer; conditions: Homo sapiens, COLO 205, Colon Cancer, 72 hours
HCC-2998 = assay: as above; conditions: Homo sapiens, HCC-2998, Colon Cancer, 72 hours
A498 = assay: In vitro tumor cell efficacy test (SRB), Renal Cancer; conditions: Homo sapiens, 72 hours
RPMI-8226 = assay: In vitro tumor cell efficacy test (SRB), Leukemia; conditions: Homo sapiens, RPMI-8226, Leukemia, 72 hours
CAKI-1 = assay: In vitro tumor cell efficacy test (SRB), Renal Cancer; conditions: Homo sapiens, CAKI-1, Renal Cancer, 72 hours
HOP-62 = conditions: Homo sapiens, HOP-62, Non-Small Cell Lung Cancer, 72 hours
[1] = tested on: different cancer cell lines; assay: In vitro tumor cell efficacy test (SRB), mean over all cell lines; conditions: Mean over all cell lines of the table
HCT-15 = assay: In vitro tumor cell efficacy test (SRB), Colon Cancer; conditions: Homo sapiens; HCT-15, Colon Cancer, 72 hours
A549/ATCC = conditions: Homo sapiens, Non-Small Cell Lung Cancer, 72 hours
SW-620 = assay: In vitro tumor cell efficacy test (SRB), Colon Cancer; conditions: Homo sapiens, SW-620, Colon Cancer, 72 hours
M14 = assay: In vitro tumor cell efficacy test (SRB), Melonoma; conditions: Homo sapiens, 72 hours
SR = assay: In vitro tumor cell efficacy test (SRB), Leukemia; conditions: Homo sapiens, 72 hours
DU-145 = assay: In vitro tumor cell efficacy test (SRB), Prostate Cancer; conditions: Homo sapiens; DU-145, Prostate Cancer, 72 hours
SN12C = assay: In vitro tumor cell efficacy test (SRB), Renal Cancer; conditions: Homo sapiens, 72 hours
LOX IMVI = assay: In vitro tumor cell efficacy test (SRB), Melonoma; conditions: Homo sapiens, 72 hours
MDA-N = assay: In vitro tumor cell efficacy test (SRB), Breast Cancer; conditions: Homo sapiens, 72 hours
K-562 = assay: In vitro tumor cell efficacy test (SRB), Leukemia; conditions: Homo sapiens, K562, K-562, Leukemia, 72 hours
UACC-257 = assay: In vitro tumor cell efficacy test (SRB), Melonoma; conditions: Homo sapiens, UACC-257, Melonoma, 72 hours
SF-539 = assay: In vitro tumor cell efficacy test (SRB), CNS Cancer; conditions: Homo sapiens; SF-539, CNS Cancer, 72 hours
CCRF-CEM = assay: In vitro tumor cell efficacy test (SRB), Leukemia; conditions: Homo sapiens, 72 hours
NCI-H522 = conditions: Homo sapiens; NCI-H522, Non-Small Cell Lung Cancer, 72 hours
IGROV1 = assay: In vitro tumor cell efficacy test (SRB), Ovarian Cancer; conditions: Homo sapiens, IGROV-1, 72 hours
SK-OV-3 = assay: as above; conditions: Homo sapiens, SK-OV-3, Ovarian Cancer, 72 hours
PC-3 = assay: In vitro tumor cell efficacy test (SRB), Prostate Cancer; conditions: Homo sapiens, PC-3, Prostate Cancer, 72 hours
KM12 = assay: In vitro tumor cell efficacy test (SRB), Colon Cancer; conditions: Homo sapiens, 72 hours
SK-MEL-2 = assay: In vitro tumor cell efficacy test (SRB), Melonoma; conditions: Homo sapiens, SK-MEL-2, Melonoma, 72 hours
T-47D = assay: In vitro tumor cell efficacy test (SRB), Breast Cancer; conditions: Homo sapiens, T47D, 72 hours
786-0 = assay: In vitro tumor cell efficacy test (SRB), Renal Cancer; conditions: Homo sapiens, 786-0, Renal Cancer, 72 hours
NCI/ADR-RES = assay: In vitro tumor cell efficacy test (SRB), Breast Cancer; conditions: Homo sapiens, 72 hours
HCT-116 = assay: In vitro tumor cell efficacy test (SRB), Colon Cancer; conditions: Homo sapiens; HCT-116, Colon Cancer, 72 hours
SK-MEL-28 = assay: In vitro tumor cell efficacy test (SRB), Melonoma; conditions: Homo sapiens, SK-MEL-28, Melonoma, 72 hours
MCF7 = assay: In vitro tumor cell efficacy test (SRB), Breast Cancer; conditions: Homo sapiens, 72 hours
TK-10 = assay: In vitro tumor cell efficacy test (SRB), Renal Cancer; conditions: Homo sapiens; TK-10, Renal Cancer, 72 hours
U251 = assay: In vitro tumor cell efficacy test (SRB), CNS Cancer; conditions: Homo sapiens, U-251, 72 hours
HS 578T = assay: In vitro tumor cell efficacy test (SRB), Breast Cancer; conditions: Homo sapiens, 72 hours
[2] = read-out: Log (LC50) (the source's name) (converted)

Nc1nccc(-c2cc(-c3ccc(O)cc3)ccc2O)n1 [3-(2-Amino-pyrimidin-4-yl)-biphenyl-4,4′-diol] showed a GI50 (COLO 205) of 7.94 µM, a CC50 (COLO 205; [2]) greater than 100 µM and a GI50 (HCC-2998) of 1.26 µM. It also gave a CC50 (HCC-2998; [2]) greater than 100 µM, a GI50 (A498) of 1.58 µM and a CC50 (A498; [2]) greater than 100 µM. It also gave a GI50 (RPMI-8226) of 0.2 µM, a CC50 (RPMI-8226; [2]) greater than 100 µM and a GI50 (CAKI-1) of 0.398 µM. The CC50 (CAKI-1; [2]) was greater than 100 µM, the GI50 (HOP-62) was 0.0794 µM and the CC50 (HOP-62; [2]) was 7.94 µM. The CC50 ([1]; read-out: Log (LC50) (M), Mean (converted)) was greater than 0.0001 M, the GI50 ([1]; read-out: log (GI50) (M), Mean (converted)) was 3.16e-07 M and the GI50 (HCT-15) was 0.126 µM. The LC50 (HCT-15) was greater than 100 µM, the GI50 (A549/ATCC) was 0.316 µM and the GI50 (SW-620) was 0.316 µM. For the same compound, the CC50 (SW-620; [2]) was greater than 100 µM, the GI50 (M14) was 0.398 µM and the CC50 (M14; [2]) was greater than 100 µM. It also gave a GI50 (SR) of 0.01 µM, a CC50 (SR; [2]) greater than 100 µM and a GI50 (DU-145) of 0.794 µM. For the same compound, the LC50 (DU-145) was greater than 100 µM, the GI50 (SN12C) was 0.251 µM and the CC50 (SN12C; [2]) was greater than 100 µM. The GI50 (LOX IMVI) was 0.2 µM, the CC50 (LOX IMVI; [2]) was greater than 100 µM and the GI50 (MDA-N) was 0.251 µM. The CC50 (MDA-N; [2]) was greater than 100 µM, the GI50 (K-562) was 0.398 µM and the CC50 (K-562; [2]) was greater than 100 µM. It also gave a GI50 (UACC-257) of 1.26 µM, a CC50 (UACC-257; [2]) greater than 100 µM and a GI50 (SF-539) of 0.2 µM. For the same compound, the LC50 (SF-539) was greater than 100 µM, the GI50 (CCRF-CEM) was 0.2 µM and the CC50 (CCRF-CEM; [2]) was 79.4 µM. For the same compound, the GI50 (NCI-H522) was 0.2 µM, the LC50 (NCI-H522) was greater than 100 µM and the GI50 (IGROV1) was 0.251 µM. The CC50 (IGROV1; [2]) was greater than 100 µM, the GI50 (SK-OV-3) was 0.501 µM and the CC50 (SK-OV-3; [2]) was greater than 100 µM. It also gave a GI50 (PC-3) of 0.251 µM, a CC50 (PC-3; [2]) greater than 100 µM and a GI50 (KM12) of 0.126 µM. It also gave a CC50 (KM12; [2]) greater than 100 µM, a GI50 (SK-MEL-2) of 0.2 µM and a CC50 (SK-MEL-2; [2]) of 3.16 µM. It also gave a GI50 (T-47D) of 2 µM, a CC50 (T-47D; [2]) of 50.1 µM and a GI50 (786-0) of 0.251 µM. For the same compound, the CC50 (786-0; [2]) was greater than 100 µM, the GI50 (NCI/ADR-RES) was 0.316 µM and the CC50 (NCI/ADR-RES; [2]) was greater than 100 µM. It also gave a GI50 (HCT-116) of 0.158 µM, an LC50 (concentration killing 50% of cells) (HCT-116) greater than 100 µM and a GI50 (SK-MEL-28) of 0.251 µM. The CC50 (SK-MEL-28; [2]) was greater than 100 µM, the GI50 (MCF7) was 0.251 µM and the LC50 (MCF7) was greater than 100 µM. For the same compound, the GI50 (TK-10) was 2 µM, the LC50 (TK-10) was greater than 100 µM and the GI50 (U251) was 0.2 µM. For the same compound, the CC50 (U251; [2]) was greater than 100 µM, the GI50 (HS 578T) was 0.398 µM and the CC50 (HS 578T; [2]) was greater than 100 µM.
